The experiment deals with T1, ASTN-2_701-1288 (Homo sapiens, UniProt O75129).
T1 construct: gene ASTN2; endodomain, residues 701-1288 in methods (crystal construct EGF-3 to C-terminus is printed 649-1288; borders may mix numberings); secreted from HEK293T, hexahistidine
T1 sequence (O75129 701-1288 isoform O75129-2): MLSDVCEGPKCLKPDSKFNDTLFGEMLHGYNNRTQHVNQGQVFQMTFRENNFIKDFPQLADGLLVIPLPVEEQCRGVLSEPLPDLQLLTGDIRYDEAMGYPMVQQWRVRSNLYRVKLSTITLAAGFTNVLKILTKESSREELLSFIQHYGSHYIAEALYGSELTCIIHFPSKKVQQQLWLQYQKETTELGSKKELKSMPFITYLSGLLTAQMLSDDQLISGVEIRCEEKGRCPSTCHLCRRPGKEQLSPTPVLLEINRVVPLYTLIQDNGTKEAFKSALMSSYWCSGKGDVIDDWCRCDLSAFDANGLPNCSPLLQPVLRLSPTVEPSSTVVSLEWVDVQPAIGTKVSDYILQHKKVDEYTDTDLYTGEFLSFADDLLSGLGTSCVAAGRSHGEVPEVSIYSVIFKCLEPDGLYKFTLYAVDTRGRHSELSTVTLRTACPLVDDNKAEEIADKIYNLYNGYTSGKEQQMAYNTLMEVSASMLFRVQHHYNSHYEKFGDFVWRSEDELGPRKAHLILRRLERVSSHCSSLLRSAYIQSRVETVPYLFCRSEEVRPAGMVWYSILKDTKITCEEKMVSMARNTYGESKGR
As to the kind of experiment: SPR, Biacore T200, immobilised biotinylated ligand. The experiment is classed as binding. Particulars: pH 7.5, 20 °C, 150 mM NaCl; labelled compound (biotin, immobilised); one Kd printed jointly for PIP3 and PIP2; construct of this run not stated. Background: Surface plasmon resonance follows binding to a sensor surface in real time, without labels.

As to PtdIns(3,4,5)P3 (C-39B6a), the affinity, expressed as Kd, was 30 µM.
Turning to PtdIns(4,5)P2 (C-45B6a), binding was characterised by a dissociation constant (Kd) of 30 µM.

(Values after publication PMC4892435, “Structure of astrotactin-2: a conserved vertebrate-specific and perforin-like membrane protein involved in neuronal development” (Open Biology, 2016).)
